Experimental data from PubChem BioAssay (NCI).
Several values for one entry are separate records, joined by “and”; a condition that tells them apart may be missing. Identical values can stand only once.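 Test compounds were applied to cells in 96-well plates for 48 hours at 5 doses. GI50 is the concentration that inhibits growth by half. TGI: total growth inhibition.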

Experiments:
Assay in all cases: inhibition of tumour cell growth, NCI panel, 48 h
[1] = system: SW-620 colon
[2] = system: NCI-H522 lung
[3] = system: HS 578T breast
[4] = system: K-562 leukemia
[5] = system: EKVX NSCLC
[6] = system: DU-145 prostate
[7] = system: RXF 393 renal
[8] = system: 786-0 renal
[9] = system: MALME-3M melanoma
[10] = system: NCI-H23 lung

Compound | GI50 [1] | TGI [1] | GI50 [2] | TGI [2] | GI50 [3] | GI50 [4] | TGI [4] | GI50 [5] | TGI [5] | GI50 [6] | GI50 [7] | TGI [7] | GI50 [8] | TGI [8] | GI50 [9] | TGI [9] | GI50 [10] | TGI [10] | TGI [3] | TGI [6]
C#CC#CC#CC#CC#CC#CC#CC#CCC1OCC(COC(=O)O[C@@H](C(=O)O[C@H]2C[C@@]3(O)[C@@H](OC(=O)c4ccccc4)[C@@H]4[C@]5(OC(C)=O)CO[C@@H]5C[C@H](O)[C@@]4(C)C(=O)[C@H](OC(C)=O)C(=C2C)C3(C)C)[C@@H](NC(=O)c2ccccc2)c2ccccc2)O1 (stereo not given in full) | 0.104 µM | > 33.3 µM | 0.166 µM | > 33.3 µM | 0.108 µM | 0.121 µM | > 33.3 µM | > 26.3 µM | > 33.3 µM | 0.0961 µM | 0.599 µM | > 8.96 µM | 2.15 µM | > 33.3 µM | 0.28 µM | > 33.3 µM | 0.465 µM | > 33.3 µM | – | –
Cc1cccc(/C=N/NC(=S)N2CCCC2)n1 | 0.352 µM | > 100 µM | – | > 100 µM | – | 0.17 µM | > 100 µM | 3.18 µM | – | 0.98 µM | 2.09 µM | – | 2.45 µM | 2.85 µM | 1 µM | 5.18 µM and 0.783 µM | 0.401 µM | 13.4 µM | > 100 µM | –
O=C1/C(=C/c2ccccc2)CN(C(=O)CCN2CCOCC2)C/C1=C\c1ccccc1 | – | 1.55 µM | – | 4.46 µM | – | – | 4.18 µM | – | 26.7 µM | – | – | 8.87 µM | – | 3.98 µM | – | 6.32 µM | – | 6.13 µM | 13.1 µM | 29.5 µM
C[C@@H]1[C@H](C)N1CC(O)Cn1ccnc1[N+](=O)[O-] (stereo not given in full) | – | > 100 µM | – | > 100 µM | – | – | > 100 µM | – | > 100 µM | – | – | > 100 µM | – | > 100 µM | – | > 100 µM | – | > 100 µM | > 100 µM | > 100 µM
COc1cc(C(=O)c2c(-c3ccccc3)oc3c(OC)cccc23)cc(OC)c1OC | 0.0497 µM | > 100 µM | 0.0348 µM | > 34.4 µM | 0.0984 µM | 0.0368 µM | > 100 µM | 0.0674 µM | > 100 µM | 0.125 µM | 0.0414 µM | 4.69 µM | 0.073 µM | 3.1 µM | 1.32 µM | > 100 µM | 0.106 µM | 16.8 µM | > 24.1 µM | > 65.6 µM
O=C1c2cc3c(cc2[C@@H]2[C@H]1c1ccc([N+](=O)[O-])cc1C(=O)N2CCCBr)OCO3 | < 0.01 µM | 3.64 µM | < 0.0266 µM | – | 0.381 µM | < 0.0121 µM | 0.444 µM | 0.0379 µM | 0.501 µM | < 0.01 µM | < 0.01 µM | < 0.01 µM | < 0.01 µM | < 0.01 µM | < 0.0189 µM | 0.168 µM | < 0.01 µM | 0.0775 µM | 11.5 µM | –
O=C1OCC2=C1C(c1cccc(Cl)c1)c1cc3c(cc1N2CCO)OCCO3 (stereo not given) | 0.04 µM | > 100 µM | 0.0204 µM | 0.0608 µM | 0.0747 µM | 0.0481 µM | > 45.7 µM | 1.54 µM | > 89.8 µM | 0.152 µM | 0.0294 µM | 0.174 µM | 0.064 µM | 5.5 µM | 0.0551 µM | > 100 µM | 0.097 µM | > 57.2 µM | > 78.2 µM | 1.31 µM
CC(C)(C)C(=O)OCC1C(=O)OCC1C(=O)N1Cc2cc3ccccc3nc2C1 (stereo not given) | – | 3.17 µM | – | 2.2 µM | – | – | 2.64 µM | – | 22.4 µM | – | – | 3.27 µM | – | 7.69 µM | – | 2.98 µM | – | 13.6 µM | 64.3 µM | 30.2 µM
CC1=C(c2cccc(O)c2)[C@H](c2ccc(OCCN3CC(CF)C3)cc2)Oc2ccc(O)cc21 | 7.28 µM | 20.9 µM | 16 µM | 32.8 µM | 5.12 µM | 3.33 µM | 17.9 µM | 9.61 µM | 21.7 µM | 4.18 µM | 3.46 µM | 12.1 µM | 5.15 µM | 18.9 µM | 3.23 µM | 13.3 µM | 11.2 µM | 25.1 µM | 26.4 µM | 15 µM
N#C/C(=C\c1ccsc1)c1nc2ccccc2o1 | > 100 µM | > 100 µM | 50.6 µM | > 100 µM | 26 µM | > 100 µM | > 100 µM | 67.5 µM | > 100 µM | 84.6 µM | 39.8 µM | > 100 µM | 8.4 µM | > 100 µM | 45.2 µM | > 100 µM | > 100 µM | > 100 µM | 92.9 µM | > 100 µM
NC(=O)N/N=C1/CCC(O)CC1CC(=O)O (stereo not given) | – | > 100 µM | – | > 100 µM | – | – | > 100 µM | – | > 100 µM | – | – | > 100 µM | – | > 100 µM | – | > 100 µM | – | > 100 µM | > 100 µM | > 100 µM
Cc1cc2c(C(C)C)c(O)c(O)cc2c(O)c1-c1c(C)cc2c(C(C)C)c(O)c(O)cc2c1O | 16.7 µM | 40.5 µM | 10.1 µM | 24.5 µM | 19.3 µM | 5.72 µM | 27.7 µM | 20.8 µM | 68.6 µM | 22 µM | 15.1 µM | 33.5 µM | 16.7 µM | 33.9 µM | 10.9 µM | 24.6 µM | 18.4 µM | 37.5 µM | 47.6 µM | 78 µM
CC[C@@]1(O)C(=O)OCc2c1cc1n(c2=O)Cc2cc3cc4c(cc3nc2-1)OCO4 | – | 3.18 µM | – | 0.113 µM | > 100 µM | < 0.0114 µM | > 100 µM | 0.415 µM | – | – | < 0.0267 µM | 0.0831 µM | – | 0.00274 µM | < 0.0144 µM | – | – | – | > 100 µM | 0.00572 µM
COc1ccc2c(c1)NC1=C(C(=O)OC1)C2c1cc(OC)c2c(c1)OCO2 (stereo not given) | < 0.0192 µM | > 100 µM | – | 0.0251 µM | < 0.0189 µM | – | > 100 µM | – | > 100 µM | 0.0218 µM | < 0.0167 µM | > 72.4 µM | 0.032 µM | > 100 µM | > 100 µM | > 100 µM | 0.0259 µM | > 100 µM | > 100 µM | 0.066 µM
